Experimental data from US9840498B2, “Substituted quinazolin-4-one derivatives” (NOVARTIS AG, priority 2013, dated 2017).
pIC50: −log10 of the molar value.

Each molecule was assayed against PI 3-Kinase Gamma (Homo sapiens (Human), UniProt P48736) (assay: Cellular U937 AKT assay for PI 3-kinase gamma). Conditions: U937 cells, MIP1α-stimulated AKT phosphorylation, read-out: Cell PI3K gamma IC50.
Type: cell-based
Experimental: The U937 monocyte cell line is maintained in a basal medium of RPMI 1640 supplemented with 10% heat inactivated FCS, 100 U/ml Penicillin, 100 ug/ml streptomycin and 2 mM L-glutamine (Invitrogen). U937 suspension culture is maintained by seeding cells at a density of 0.125×10^6 cells per ml in fresh medium every three or four days. Cells are incubated at 37° C., 5% CO2. […] Before beginning the cell manipulations described below, the MSD (Meso Scale Discovery) assay plate is blocked by addition of 150 ul/well blocking buffer supplied and incubated with shaking for a minimum of one hour at room temperature. All steps of the assay must be performed quickly, with accurately timed incubation periods and observing temperature controls where indicated. […] Falcon tube, counted and centrifuged for eight minutes at 300 g at room temperature. Supernatant is aspirated, the cell pellet resuspended and washed once in HBSS (Hank's Balanced Salt Solution) by centrifugation for eight minutes at 300 g at room temperature. The cell pellet is resuspended in HBSS to a concentration of 4×10^6 per ml, and 100 μL of cell suspension added to each well of a flat-bottomed 96-well tissue culture plate. Assay plates are incubated for 1.5 hours at 37° C., 5% CO2 to allow background AKT phosphorylation to reduce before the compound stimulation step. […] Compound concentrations at this stage are 4-times the final concentration required in the assay plate. Cells are stimulated with compound or HBSS 0.8% DMSO by direct transfer of 50 ul/well from the compound dilution plate. The assay plate containing compound-treated cells is then incubated for 30 minutes at 37° C. A standard plate layout is used for all experiments. Compound-treated cells, in addition to positive control wells (“max MIP1α”), are stimulated with 50 μL per well of 40 ng/ml MIP1α (R&D Systems catalogue number 270-LD, lyophilized stock reconstituted to 50 μg/ml with PBS 0.1% BSA). Negative control wells (“min HBSS”), are stimulated with 50 μl/well of HBSS in the absence of MIP1α. […] Cells are incubated with MIP1α for 3 minutes, at 37° C., 5% CO2. After the three minute stimulation period, the assay plate is kept ice cold at all times. Assay plates are centrifuged for 2 minutes at 300 g, 4° C. and supernatant is removed by gently inverting, and then blotting the plate on tissue. Cells are then washed by gentle addition of 150 μL/well of ice cold HBSS and centrifugation at 300 g, for 5 minutes at 4° C. Supernatant is aspirated and the plate blotted as described above. The plate is placed on ice and cells are immediately treated with 35 μL per well of ice cold lysis buffer, prepared according to the kit instructions (per assay plate, to 5 ml of Tris lysis buffer add 100 μl of 50× protease inhibitor solution and 50 μl of each 100× phosphatase inhibitor solutions I and II). Plates are incubated on ice for 20 minutes before centrifugation at 841 g for 5 minutes, 4° C. Block buffer is aspirated from the MSD plate, and the plate washed four times with 300 μl/well Tris wash buffer. 25 μL of cell lysate is then transferred from the assay plate to the washed MSD plate which is sealed and incubated at room temperature for one hour with shaking. The plate is washed four times with 300 μL per well of Tris wash buffer before addition of 25 μL per well of sulfo-tag anti-total AKT/pAKT detection antibody (60 μl of 50× antibody stock is diluted in 1 ml block buffer mixed with 2 ml wash buffer) and incubated at room temperature for one hour with shaking. The plate is washed four times with 300 μl per well of Tris wash buffer and 150 μl per well of Read buffer is added, taking care to avoid the introduction of bubbles. The plate is immediately read using an MSD SECTOR Imager 6000. Results are exported in Excel and the percentage of phosphorylated AKT is calculated using the equation: % Phosphoprotein=((2*Phospho signal)/(Phospho signal+Total signal))*100. […]

PI 3-Kinase Gamma, sequence (P48736 whole entry): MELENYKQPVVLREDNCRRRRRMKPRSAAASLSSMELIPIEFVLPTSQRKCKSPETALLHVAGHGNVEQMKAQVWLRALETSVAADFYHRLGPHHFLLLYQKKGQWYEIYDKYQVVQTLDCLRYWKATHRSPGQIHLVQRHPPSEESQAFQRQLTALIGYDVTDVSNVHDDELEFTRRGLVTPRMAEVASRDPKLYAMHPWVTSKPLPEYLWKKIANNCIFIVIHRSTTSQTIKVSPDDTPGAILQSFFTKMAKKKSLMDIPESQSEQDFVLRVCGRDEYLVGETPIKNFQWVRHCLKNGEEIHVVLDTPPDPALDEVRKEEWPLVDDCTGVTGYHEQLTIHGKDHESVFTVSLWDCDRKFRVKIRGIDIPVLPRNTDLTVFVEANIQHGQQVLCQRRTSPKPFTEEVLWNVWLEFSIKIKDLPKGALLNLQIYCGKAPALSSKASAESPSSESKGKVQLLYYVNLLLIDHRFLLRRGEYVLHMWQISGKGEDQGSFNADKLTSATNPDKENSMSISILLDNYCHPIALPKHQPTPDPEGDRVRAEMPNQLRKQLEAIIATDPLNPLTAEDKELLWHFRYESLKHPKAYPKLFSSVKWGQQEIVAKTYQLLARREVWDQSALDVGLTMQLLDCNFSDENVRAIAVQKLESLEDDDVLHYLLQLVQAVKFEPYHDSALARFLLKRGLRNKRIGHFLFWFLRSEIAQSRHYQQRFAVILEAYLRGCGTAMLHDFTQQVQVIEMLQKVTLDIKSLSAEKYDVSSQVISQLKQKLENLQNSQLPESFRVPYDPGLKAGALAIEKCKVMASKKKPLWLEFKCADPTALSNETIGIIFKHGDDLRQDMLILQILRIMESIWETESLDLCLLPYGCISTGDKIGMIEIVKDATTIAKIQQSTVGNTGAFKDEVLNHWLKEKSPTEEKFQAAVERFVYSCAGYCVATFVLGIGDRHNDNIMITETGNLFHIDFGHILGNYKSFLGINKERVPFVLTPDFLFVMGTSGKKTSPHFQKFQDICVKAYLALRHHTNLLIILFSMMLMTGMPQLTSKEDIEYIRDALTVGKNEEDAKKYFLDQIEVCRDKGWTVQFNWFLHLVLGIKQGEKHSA

Row | SMILES | pIC50
1 | CO[C@H]1C[C@@H](c2nc3cccc(-c4cnn(C)c4)c3c(=O)n2-c2ccccc2)N(c2nc(N)nc3[nH]cnc23)C1 [Example 11, 2-((2S,4S)-1-(2-Amino-9H-purin-6-yl)-4-methoxypyrrolidin-2-yl)-5-(1-methyl-1H-pyrazol-4-yl)-3-phenylquinazolin-4(3H)-one] | 6.47
2 | CO[C@H]1C[C@@H](c2nc3cccc(-c4cnn(C)c4)c3c(=O)n2-c2ccccc2)N(c2nc(N)nc(C)c2C#N)C1 [Example 10, 2-Amino-4-((2S,4S)-4-methoxy-2-(5-(1-methyl-1H-pyrazol-4-yl)-4-oxo-3-phenyl-3,4-dihydroquinazolin-2-yl)pyrrolidin-1-yl)-6-methylpyrimidine-5-carbonitrile] | 7.42
3 | Cc1nc(N)nc(N2C[C@@H](O)C[C@H]2c2nc3cccc(-c4cnn(CCO)c4)c3c(=O)n2-c2ccccc2)c1C#N [Example 28, 2-Amino-4-((2S,4S)-4-hydroxy-2-(5-(1-(2-hydroxyethyl)-1H-pyrazol-4-yl)-4-oxo-3-phenyl-3,4-dihydroquinazolin-2-yl)pyrrolidin-1-yl)-6-methylpyrimidine-5-carbonitrile] | 6.92
4 | CCOc1ncc(-c2cccc3nc([C@@H]4CCCN4c4nc(N)nc(C)c4C#N)n(-c4ccccc4)c(=O)c23)cn1 [Example 32, (S)-2-Amino-4-(2-(5-(2-ethoxypyrimidin-5-yl)-4-oxo-3-phenyl-3,4-dihydroquinazolin-2-yl)pyrrolidin-1-yl)-6-methylpyrimidine-5-carbonitrile] | 6.14
5 | Cc1nc(N)nc(N2CCC[C@H]2c2nc3cccc(-c4cncnc4)c3c(=O)n2-c2ccccc2)c1C#N [Example 17, (S)-2-Amino-4-methyl-6-(2-(4-oxo-3-phenyl-5-(pyrimidin-5-yl)-3,4-dihydroquinazolin-2-yl)pyrrolidin-1-yl)pyrimidine-5-carbonitrile] | 6.54
6 | Cc1ccccc1-n1c([C@@H]2CCCN2c2ncnc(N)c2C#N)nc2cccc(-c3cnn(C)c3)c2c1=O [Example 14, (S)-4-Amino-6-(2-(5-(1-methyl-1H-pyrazol-4-yl)-4-oxo-3-(otolyl)-3,4-dihydroquinazolin-2-yl)pyrrolidin-1-yl)pyrimidine-5-carbonitrile] | 6.68

Molecules with a higher pIC50, results first:

Row | pIC50 | SMILES
7 | 7.74 | COc1ncc(-c2cccc3nc([C@@H]4C[C@H](O)CN4c4nc(N)nc(C)c4C#N)n(-c4ccccc4)c(=O)c23)cn1 [Example 22, 2-Amino-4-((2S,4S)-4-hydroxy-2-(5-(2-methoxypyrimidin-5-yl)-4-oxo-3-phenyl-3,4-dihydroquinazolin-2-yl)pyrrolidin-1-yl)-6-methylpyrimidine-5-carbonitrile]
8 | 7.96 | Cc1nc(N)nc(N2C[C@@H](F)C[C@H]2c2nc3cccc(-c4cnn(C)c4)c3c(=O)n2-c2ccccc2)c1C#N [Example 30, 2-Amino-4-((2S,4S)-4-fluoro-2-(5-(1-methyl-1H-pyrazol-4-yl)-4-oxo-3-phenyl-3,4-dihydroquinazolin-2-yl)pyrrolidin-1-yl)-6-methylpyrimidine-5-carbonitrile]
9 | 7.54 | Cn1cc(-c2c(F)ccc3nc([C@@H]4C[C@H](O)CN4c4ncnc(N)c4C#N)n(-c4ccccc4)c(=O)c23)cn1 [Example 8, 4-Amino-6-((2S,4S)-2-(6-fluoro-5-(1-methyl-1H-pyrazol-4-yl)-4-oxo-3-phenyl-3,4-dihydroquinazolin-2-yl)-4-hydroxypyrrolidin-1-yl) pyrimidine-5-carbonitrile]
10 | 8.05 | Cc1nc(N)nc(N2C[C@@H](O)C[C@H]2c2nc3cccc(-c4cccnc4)c3c(=O)n2-c2ccccc2)c1C#N [Example 24, 2-Amino-4-((2S,4S)-4-hydroxy-2-(4-oxo-3-phenyl-5-(pyridin-3-yl)-3,4-dihydroquinazolin-2-yl)pyrrolidin-1-yl)-6-methylpyrimidine-5-carbonitrile]
